Reference: patent US9555057B2, “Compositions and methods for reducing cutaneous microbiome malodor” (The Research Foundation for The State University of New York, priority 2014, dated 2017)

What was measured:
[1] = system: C. striatum, Staph. epidermidis or a 1:1 mixture thereof
Excerpt: The pH of the medium with each of the different zinc salts needed some adjustment, which was done with 1 M HCl or 1 M NaOH depending upon the pH of the stock solutions of each zinc salt employed.

[2] = system: pure cultures of microorganisms resident on human axillary skin; conditions: for Odor released on catabolism: bacteria that catabolized the substrate
Procedure: Pure cultures of the numerically most prominent microorganisms normally resident on human axillary skin (see Table 1) were surveyed for their effects on (i) pH, (ii) Eh, (iii) ability to generate malodor and (iv) ability to generate hydrogen peroxide. Four hour incubation experiments were conducted, in which each of a wide range of carbohydrate and amino acid substrates (see Table 1) were surveyed for malodor production and related changes in pH and Eh thereto.
Each microorganism was recovered from its frozen state at −70° C. and grown at 37° C. in 10 ml of appropriate and respective culture media for a period between 24 and 48 hours (see Table 1). Incubations were carried out to middle and late exponential stages of bacterial growth under the incubation conditions indicated in Table 1. A 1.5 ml inoculum was transferred therefrom to polypropylene bottles containing 150 ml of the initial growth medium. This was then incubated at 37° C. for 24 to 48 hours. Bacteria were harvested by centrifugation (DuPone, Sorvall, Newtown, Conn.) at 10,000 g and 4° C. for 20 min. […] The sediment was then washed with sterile distilled water to remove residual growth medium. This was done by centrifuging the bacterial sediment three times at 1,740 g for 15 min at 4° C.
Each pure culture was pre-incubated at 37° C. at pH 7.0 to exhaust or reduce any stored carbohydrate and other carbon/energy sources acquired during growth in culture.
Both of these electrodes were connected to a second pH meter (pH M26 Radiometer Copenhagen NV, Denmark) and used here as a millivoltmeter. For the Eh measurements, when the Eh electrode was immersed in an incubation mixture, each Eh reading was recorded after allowing several seconds for each reading to stabilize. The Eh value was related to that of the hydrogen electrode by adding to each reading the difference between the E0 value for the Red Rod reference element-mercury and hydrogen electrodes—i.e. 270 my at 25° C.
At each time point, the odor was determined organoleptically by immersing a solid glass rod into each incubation mixture, stirring gently 3 times and then removing and carefully smelling the rod after 5 seconds. The intensity of the odor was assessed on a 0 to 4 numerical scale (0—no odor, 1—mild odor, 2—moderate odor, 3—strong odor, and 4—very strong odor).

[3] = system: mixture of C. striatum and Staph. epidermidis in the ratio of 1 to 1; assay: Zinc carbonate / arginine bicarbonate on odor and pH, CIL and phenylalanine medium; assay type: cell-based

`CC(=O)[O-].CC(=O)[O-].[Zn+2]` [Zinc acetate] was tested, and the “Sulfurous odor and Eh” value ([1]; zinc acetate, CIL and either arginine or arginine bicarbonate, pH 4.0 to 8.0, 4 hours, no phenylalanine) was “No sulfurous odor nor corresponding decrease in the Eh”.
With `N[C@@H](CS)C(=O)O` [cysteine] the “Odor released on catabolism” value ([2]; 6.0 mM) was “sulfurous odor”.
For `N[C@@H](CSSC[C@H](N)C(=O)O)C(=O)O` [cystine], the “Odor released on catabolism” value ([2]; 6.0 mM) was “sulfurous odor”.
Molecule `CC(C)C[C@H](N)C(=O)O` [leucine] has a Foot-web odor score ([2]; 6.0 mM, Staph. saprophyticus, Staph. hominis, Staph. haemolyticus and C. minutissium, 0 to 4 scale) of 2.
With `CSCC[C@H](N)C(=O)O` [methionine] the “Methyl mercaptan-like odor level” value ([2]; 6.0 mM, Staph. epidermidis, Staph. saprophyticus, C. jeikeium, C. minutissium, Brevibacterium epidermidis, P. avidum, P. acne, M. furfur) was “mild to moderate”.
For `N[C@@H](Cc1ccccc1)C(=O)O` [phenylalanine], the “Odor produced on catabolism (in words)” value ([2]; 6.0 mM, C. striatum, Staph. saprophyticus or Staph. hominis) was “pleasant odor”, the Pleasant odor ([3]; medium with zinc carbonate, CIL and phenylalanine, between pH 5.0 and 8.0, 4 hours) was “pleasant odor developed” and the Pleasant odor ([3]; phenylalanine added to zinc acetate, CIL, arginine or arginine bicarbonate media, pH 6.5 and 7.0, 4 hour) was “pleasant odor appeared”.
With `OC[C@H]1O[C@@](CO)(O[C@H]2O[C@H](CO)[C@@H](O)[C@H](O)[C@H]2O)[C@@H](O)[C@@H]1O` [sucrose] the “pH response, lowest pH reached” value ([2]; 28 mM carbohydrate, start pH 7.0, 37° C., 4 hours, across the bacteria tested) was 4.2.
For `N[C@@H](Cc1c[nH]c2ccccc12)C(=O)O` [tryptophan], the Indole/skatole odor level ([2]; 6.0 mM, M. luteus and P. acne, 0 to 4 scale) was 2.
Zinc arginate was tested, and the Foot odor smell ([1]; 12 mM zinc arginate, CIL and phenylalanine, pH 4.0 or 5.0, 4 hours) was “mild”, the Eh ([1]; 12 mM zinc arginate, CIL and phenylalanine, pH 4.0 to 8.0, 4 hours) was “decreased significantly” and the Sulfurous odor ([1]; 12 mM zinc arginate, CIL and phenylalanine, pH 4.0 to 8.0, 4 hours, versus control groups) was “blocked completely”. The Foot odor generation ([1]; 12 mM zinc arginate, CIL and phenylalanine, pH 6.0 or above) was “disappeared”, the Favorable odor ([1]; C. striatum or the mixture, zinc arginate, CIL and phenylalanine, pH 5.0 to 8.0, 4 hours) was “evident” and the Pleasant flower odor ([1]; Staph. epidermidis alone, zinc arginate, CIL and phenylalanine, 4 hours) was “not detected”.
